Experimental data published in patent US20070243161A1, “Epigenetic modification of the loci for CAMTA1 and/or FOXP3 as a marker for cancer treatment” (priority 2006, published 2007).

Experiments:
[1] = system: foxp3 locus; assay: Bisulphite sequencing of the foxp3 locus in CD25-CD4+ T cells cultured with TGF-β; type: cell-based, BALB/c mice
Excerpt: D4+ T cells were isolated from pooled spleen and LN single cell suspensions by using anti CD4-FITC plus anti FITC multisort microbeads and the AutoMACS magnetic separation system (Miltenyi Biotec). After release of beads according to the manufacturer's instructions, CD25+ cells were depleted by using anti CD25-APC plus anti APC microbeads. To avoid the expansion of pre-committed Foxp3+ Tregs, the inventors excluded the majority of residual Foxp3+ Tregs from the CD25−CD4+ T cell fraction by sorting for CD62L^high cells using anti CD62L microbeads. MACS-sorted CD62L^highCD25−CD4+ T cells were stimulated for 3 days using plate bound anti CD3 (6 μg/ml) and anti CD28 (4 μg/ml). For Th1 cultures 5 μg/ml anti-IL-4, 20 ng/ml IFN-γ and 5 ng/ml IL-12 was added to the medium. For TGF-β cultures 5 ng/ml TGF-β and 10 ng/ml IL-2 was used. After 3 days, cells were removed from the stimulus, transferred to non-coated plates and cultured for another 3 days. All cell culture was done with RPMI 1640 (Gibco) supplemented with 10% FCS (Sigma). On day 6, cultured cells were stained using anti CD25-APC and sorted for CD25+ cells by FACS (Aria). Foxp3 expression of sorted CD25+ cells was analyzed by intracellular staining. For restimulation experiments sorted CD25+ cells were stimulated for 3 days using plate bound anti CD3 (6 μg/ml) and anti CD28 (4 μg/ml) plus IL-2 (10 ng/ml). After 3 days, cells were removed from the stimulus, transferred to non-coated plates and cultured for another 3 days. On day 6, cultured cells were stained for CD25 and Foxp3 as described above.
Genomic DNA was isolated from purified T cells using the DNeasy tissue kit (Qiagen) following the supplier's recommendations. Sodium bisulphite treatment of genomic DNA was performed according to Olek et al. (Olek, A., Oswald, J. and Walter, J. A modified and improved method for bisulphite based cytosine methylation analysis. Nucleic Acids Res 24, 5064-6 (1996)) with minor modifications, resulting in the deamination of unmethylated cytosines to uracil, whereas methylated cytosines remain unchanged. In a subsequent PCR amplification uracils were replicated as thymidines. Thus, detection of a “C” in sequencing reactions reflects methylation of the genomic DNA at that site. Detection of a “T” at the same site instead reflects the absence of a methyl modification of the genomic cytosine.
PCRs were performed on MJ Research thermocyclers (Waltham) in a final volume of 25 μl containing 1×PCR Buffer, 1 U Taq DNA polymerase (Qiagen), 200 μM dNTPs, 12.5 pmol each of forward and reverse primers, and 7 ng of bisulphite-treated genomic DNA. The amplification conditions were 95° C. for 15 min and 40 cycles of 95° C. for 1 min, 55° C. for 45 sec and 72° C. for 1 min and a final extension step of 10 min at 72° C. PCR products were purified using ExoSAP-IT USB Corp.) and sequenced in both directions applying the PCR primers and the ABI Big Dye Terminator v1.1 cycle sequencing chemistry (Applied Biosystems) followed by capillary electrophoresis on an ABI 3100 genetic analyzer. Trace files were interpreted using ESME, which normalizes sequence traces, corrects for incomplete bisulphite conversion and allows for quantification of methylation signals (Lewin, J., Schmitt, A. O., Adorjan, P., Hildmann, T. and Piepenbrock, C. Quantitative DNA methylation analysis based on four-dye trace data from direct sequencing of PCR amplificates. Bioinformatics 20, 3005-12 (2004)). For each sample both PCR amplification and sequencing was repeated once. The following primers (5′ to 3′ direction) were used for both PCR amplification of bisulphite converted genomic DNA and sequence reactions: […]

[2] = system: Foxp3; assay: Intracellular Foxp3 expression by FACS in TGF-β-cultured CD25-CD4+ T cells; type: cell-based, BALB/c mice
Method: Cytometric analysis was performed as previously described (Huehn, J. et al. Developmental stage, phenotype and migration distinguish naive- and effector/memory-like CD4+ regulatory T cells. J Exp Med 199, 303-313 (2004)) using a FACS Calibur or a LSRII (BD Biosciences) and the CellQuest™ software. Dead cells were excluded by PI (propidium iodide) or DAPI (diamidophenylindole) staining (Sigma). Intracellular Foxp3 staining was performed with the PE anti-mouse Foxp3 staining set according to the manufacturers instructions.
D4+ T cells were isolated from pooled spleen and LN single cell suspensions by using anti CD4-FITC plus anti FITC multisort microbeads and the AutoMACS magnetic separation system (Miltenyi Biotec). After release of beads according to the manufacturer's instructions, CD25+ cells were depleted by using anti CD25-APC plus anti APC microbeads. To avoid the expansion of pre-committed Foxp3+ Tregs, the inventors excluded the majority of residual Foxp3+ Tregs from the CD25−CD4+ T cell fraction by sorting for CD62L^high cells using anti CD62L microbeads. MACS-sorted CD62L^highCD25−CD4+ T cells were stimulated for 3 days using plate bound anti CD3 (6 μg/ml) and anti CD28 (4 μg/ml). For Th1 cultures 5 μg/ml anti-IL-4, 20 ng/ml IFN-γ and 5 ng/ml IL-12 was added to the medium. […] Foxp3 expression of sorted CD25+ cells was analyzed by intracellular staining. […]

[3] = cell culture in the presence of TGF-β
[4] = sorted CD25+ cells, day 6 TGF-β culture, exp. 1
[5] = sorted CD25+ cells, day 6 TGF-β culture, exp. 2

## TGF-β: cytokine (R and D Systems) added at 5 ng/ml with IL-2 to induce Foxp3+ Tregs from CD25-CD4+ T cells
[1]; [3]
  methylation of CpG motifs in amplicons 3 and 4: fully methylated
  methylation of CpG motifs within region covered by amplicons 1 and 2: clearly visible demethylation
[1]; [4]
  degree of methylation, CpG motif amplicon 1 (158): 100%
  degree of methylation, CpG motif amplicon 1 (180): 92%
  degree of methylation, CpG motif amplicon 1 (308): 63%
  degree of methylation, CpG motif amplicon 1 (344): 41%
  degree of methylation, CpG motif amplicon 1 (360): 60%
  degree of methylation, CpG motif amplicon 1 (394): 28%
  degree of methylation, CpG motif amplicon 1 (421): 42%
  degree of methylation, CpG motif amplicon 1 (426): 48%
  degree of methylation, CpG motif amplicon 2 (205): 74%
  degree of methylation, CpG motif amplicon 2 (224): 72%
  degree of methylation, CpG motif amplicon 2 (228): 100%
  degree of methylation, CpG motif amplicon 2 (236): 75%
  degree of methylation, CpG motif amplicon 2 (298): 64%
  degree of methylation, CpG motif amplicon 2 (368): 39%
  degree of methylation, CpG motif amplicon 3 (93): 100%
  degree of methylation, CpG motif amplicon 3 (170): 100%
  degree of methylation, CpG motif amplicon 3 (173): 100%
  degree of methylation, CpG motif amplicon 3 (176): 100%
  degree of methylation, CpG motif amplicon 3 (281): 100%
  degree of methylation, CpG motif amplicon 4 (69): 100%
  degree of methylation, CpG motif amplicon 4 (311): 100%
  degree of methylation, CpG motif amplicon 4 (315): 100%
  degree of methylation, CpG motif amplicon 4 (319): 100%
  degree of methylation, CpG motif amplicon 4 (338): 90%
  degree of methylation, CpG motif amplicon 4 (371): 100%
[1]; [5]
  degree of methylation, CpG motif amplicon 1 (158): 100%
  degree of methylation, CpG motif amplicon 1 (180): 93%
  degree of methylation, CpG motif amplicon 1 (308): 75%
  degree of methylation, CpG motif amplicon 1 (344): 41%
  degree of methylation, CpG motif amplicon 1 (360): 70%
  degree of methylation, CpG motif amplicon 1 (394): 38%
  degree of methylation, CpG motif amplicon 2 (205): 67.5%
  degree of methylation, CpG motif amplicon 2 (224): 75%
  degree of methylation, CpG motif amplicon 2 (228): 90%
  degree of methylation, CpG motif amplicon 2 (236): 66%
  degree of methylation, CpG motif amplicon 2 (298): 43%
  degree of methylation, CpG motif amplicon 2 (368): 50%
  degree of methylation, CpG motif amplicon 3 (170): 100%
  degree of methylation, CpG motif amplicon 3 (173): 100%
  degree of methylation, CpG motif amplicon 3 (176): 100%
  degree of methylation, CpG motif amplicon 3 (281): 96%
  degree of methylation, CpG motif amplicon 4 (69): 100%
  degree of methylation, CpG motif amplicon 4 (311): 100%
  degree of methylation, CpG motif amplicon 4 (315): 100%
  degree of methylation, CpG motif amplicon 4 (319): 100%
  degree of methylation, CpG motif amplicon 4 (338): 100%
  degree of methylation, CpG motif amplicon 4 (371): 100%
[2]; CD25-CD4+ T cells activated and cultured 6 days with TGF-β, day 6
  Foxp3+ cells among TGF-β-cultured cells: > 98%
[2]; TGF-β-induced Tregs restimulated 6 days in the absence of TGF-β
  Foxp3 expression after restimulation: lost Foxp3 expression
